Read-outs that look alike come from different tables or passages of the source. Where a SMILES comes first, the peptide text is derived from it. Bridges are numbered along the chain shown (N, C = ends). [ ]: non-standard residue; d: D form. The star is where a group is joined. ξ: configuration not given here. ξNMePhe(4-NMe2) = CNC(Cc1ccc(N(C)C)cc1)C(=O)O; Picolinoyl(3-OH) = O=C(c1ncccc1O)*; ξPip(4-oxo) = O=C1CCNC(C(=O)O)C1; Phg = N[CH](C(=O)O)c1ccccc1; Abu = CC[CH](N)C(=O)O
Assays:
[1] = test system: P. falciparum 3D7 parasites; test: P. falciparum growth inhibition assay, 1-cycle (72 h treatment), SYBR DNA staining (library screen at 2 μg/mL and dose-response); type: cell-based, Plasmodium falciparum; conditions: for activity at 2 µg/mL: Plasmodium falciparum
[2] = test system: P. falciparum 3D7 parasites; test: P. falciparum growth inhibition assay, 2-cycle (120 h treatment), delayed-death screen and dose-response; type: cell-based, Plasmodium falciparum; conditions: for activity at 2 µg/mL: Plasmodium falciparum
[3] = test system: T. gondii RH strain (RH-Tub-eYFP) tachyzoites; test: microbe, parasite or virus in culture; type: cell-based, Toxoplasma gondii
[4] = P. falciparum 3D7, 72 h, parasite screen at 2 μg/mL, % growth, replicate 1
[5] = P. falciparum 3D7, 72 h, parasite screen at 2 μg/mL, % growth, replicate 2
[6] = P. falciparum 3D7, 120 h, parasite screen at 2 μg/mL, % growth, replicate 1
[7] = P. falciparum 3D7, 120 h, parasite screen at 2 μg/mL, % growth, replicate 2
[8] = T. gondii, 72 h, parasite screen at 2 μg/mL, % growth, replicate 1
[9] = T. gondii, 72 h, parasite screen at 2 μg/mL, % growth, replicate 2
[10] = 3D7, P. falciparum, 72 h, screen at 2 μg/mL, replicate 1, read-out: Pf_72h_%Growth_Rep1
[11] = 3D7, P. falciparum, 72 h, screen at 2 μg/mL, replicate 2, read-out: Pf_72h_%Growth_Rep2
[12] = 3D7, P. falciparum, 120 h, screen at 2 μg/mL, replicate 1, read-out: Pf_120h_%Growth_Rep1
[13] = 3D7, P. falciparum, 120 h, screen at 2 μg/mL, replicate 2, read-out: Pf_120h_%Growth_Rep2
[14] = Toxoplasma gondii, 72 h, T. gondii, 72 h, screen at 2 μg/mL, replicate 1; read-out: Tg_72h_%Growth_Rep1
[15] = Toxoplasma gondii, 72 h, T. gondii, 72 h, screen at 2 μg/mL, replicate 2; read-out: Tg_72h_%Growth_Rep2
[16] = library screen at 2 μg/mL, 72 h, % growth, replicate 1
[17] = library screen at 2 μg/mL, 72 h, % growth, replicate 2
[18] = library screen at 2 μg/mL, 120 h, % growth, replicate 1
[19] = library screen at 2 μg/mL, 120 h, % growth, replicate 2
[20] = P. falciparum, 72 h, screen at 2 μg/mL, replicate 1
[21] = P. falciparum, 72 h, screen at 2 μg/mL, replicate 2
[22] = P. falciparum, 120 h, screen at 2 μg/mL, replicate 1
[23] = P. falciparum, 120 h, screen at 2 μg/mL, replicate 2
[24] = T. gondii, 72 h, screen at 2 μg/mL, replicate 1
[25] = T. gondii, 72 h, screen at 2 μg/mL, replicate 2
[26] = P. falciparum, 72 h, parasite screen 2 μg/mL, % growth, replicate 1
[27] = P. falciparum, 72 h, parasite screen 2 μg/mL, % growth, replicate 2
[28] = P. falciparum, 120 h, parasite screen 2 μg/mL, % growth, replicate 1
[29] = P. falciparum, 120 h, parasite screen 2 μg/mL, % growth, replicate 2
[30] = T. gondii, 72 h, parasite screen 2 μg/mL, % growth, replicate 1
[31] = T. gondii, 72 h, parasite screen 2 μg/mL, % growth, replicate 2

CC[C@H]1C[C@@H]2CC[C@@H](O2)[C@@H](C)C(=O)O[C@H](C)C[C@H]2CC[C@H](O2)[C@H](C)C(=O)O[C@@H](C)C[C@@H]2CC[C@@H](O2)[C@@H](C)C(=O)O[C@H](C)C[C@H]2CC[C@H](O2)[C@H](C)C(=O)O1 [BIA-M1055]
Pf_72h_%Growth_Rep1 [1, 4]: 7.23% | Pf_72h_%Growth_Rep2 [1, 5]: 6.66% | Pf_120h_%Growth_Rep1 [2, 6]: 15.60% | Pf_120h_%Growth_Rep2 [2, 7]: 21.38% | Tg_72h_%Growth_Rep1 [3, 8]: 3.56% | Tg_72h_%Growth_Rep2 [3, 9]: 1.37%

CCCCCCCCCC(=O)N[C@@H](Cc1c[nH]c2ccccc12)C(=O)N[C@H](CC(N)=O)C(=O)N[C@@H](CC(=O)O)C(=O)N[C@@H]1C(=O)NCC(=O)N[C@@H](CCCN)C(=O)N[C@@H](CC(=O)O)C(=O)N[C@H](C)C(=O)N[C@@H](CC(=O)O)C(=O)NCC(=O)N[C@H](CO)C(=O)N[C@@H]([C@H](C)CC(=O)O)C(=O)N[C@@H](CC(=O)c2ccccc2N)C(=O)O[C@@H]1C [Daptomycin]
activity at 2 µg/mL [1, 10]: 88.5% | activity at 2 µg/mL [1, 11]: 114% | activity at 2 µg/mL [2, 12]: 90.7% | activity at 2 µg/mL [2, 13]: 116% | percent parasite growth at 2 µg/mL [3, 14]: 132% | percent parasite growth at 2 µg/mL [3, 15]: 90.1%

Nc1ncnc2c1ncn2[C@@H]1O[C@H](CO)C[C@H]1O [Cordycepin]
activity at 2 µg/mL [1, 10]: 22.1% | activity at 2 µg/mL [1, 11]: 11.8% | activity at 2 µg/mL [2, 12]: 24.5% | activity at 2 µg/mL [2, 13]: 12.4% | percent parasite growth at 2 µg/mL [3, 14]: 80% | percent parasite growth at 2 µg/mL [3, 15]: 99.7%

CC(=O)NCCc1cnc[nH]1 [Acetylhistamine, N-]
Pf_72h_%Growth_Rep1 [1, 16]: 82.83% | Pf_72h_%Growth_Rep2 [1, 17]: 91.72% | Pf_120h_%Growth_Rep1 [2, 18]: 90.99% | Pf_120h_%Growth_Rep2 [2, 19]: 93.21% | Tg_72h_%Growth_Rep1 [3, 16]: 95.97% | Tg_72h_%Growth_Rep2 [3, 17]: 105.85%

CCC(=O)N[C@H](CO)[C@H](O)c1ccc([N+](=O)[O-])cc1 [Corynecin II]
Pf_72h_%Growth_Rep1 [1, 20]: 84.27% | Pf_72h_%Growth_Rep2 [1, 21]: 79.27% | Pf_120h_%Growth_Rep1 [2, 22]: 83.93% | Pf_120h_%Growth_Rep2 [2, 23]: 86.26% | Tg_72h_%Growth_Rep1 [3, 24]: 140.85% | Tg_72h_%Growth_Rep2 [3, 25]: 90.01%

C=C1CC[C@H](O)C(C)(C)[C@@H]1CC/C(C)=C/CC/C(C)=C/Cc1c(O)cc(C)oc1=O [Sartorypyrone D]
Pf_72h_%Growth_Rep1 [1, 26]: 81.94% | Pf_72h_%Growth_Rep2 [1, 27]: 66.06% | Pf_120h_%Growth_Rep1 [2, 28]: 72.77% | Pf_120h_%Growth_Rep2 [2, 29]: 7.76% | Tg_72h_%Growth_Rep1 [3, 30]: 121.13% | Tg_72h_%Growth_Rep2 [3, 31]: 88.47%

CCCCC[C@@]1(OC(=O)CCC(=O)O)CC[C@]2(CC[C@H](C)[C@@H](C/C=C(C)/C=C/[C@H](O)[C@@H](C)/C=C/C(=O)O)O2)O[C@H]1/C=C/C(C)=C/C(=O)O [Reveromycin D]
Pf_72h_%Growth_Rep1 [1, 26]: 62.63% | Pf_72h_%Growth_Rep2 [1, 27]: 21.41% | Pf_120h_%Growth_Rep1 [2, 28]: 51.02% | Pf_120h_%Growth_Rep2 [2, 29]: 15.46% | Tg_72h_%Growth_Rep1 [3, 30]: 109.29% | Tg_72h_%Growth_Rep2 [3, 31]: 94.72%

C[C@H]1NC(=O)[C@@H]2CCCN2C1=O [Cyclo(D-Ala-L-Pro)]
Pf_72h_%Growth_Rep1 [1, 20]: 84.19% | Pf_72h_%Growth_Rep2 [1, 21]: 89.96% | Pf_120h_%Growth_Rep1 [2, 22]: 102.13% | Pf_120h_%Growth_Rep2 [2, 23]: 92.71% | Tg_72h_%Growth_Rep1 [3, 24]: 121.18% | Tg_72h_%Growth_Rep2 [3, 25]: 102.00%

O=C1NCc2nc3ccccc3c(=O)n2-c2ccccc21 [Sclerotigenin]
activity at 2 µg/mL ([1]; 3D7, P. falciparum, 72 h, parasite screen 2 μg/mL, % growth, replicate 1, read-out: Pf_72h_%Growth_Rep1): 90.7% | activity at 2 µg/mL ([1]; 3D7, P. falciparum, 72 h, parasite screen 2 μg/mL, % growth, replicate 2, read-out: Pf_72h_%Growth_Rep2): 89.5% | activity at 2 µg/mL ([2]; 3D7, P. falciparum, 120 h, parasite screen 2 μg/mL, % growth, replicate 1, read-out: Pf_120h_%Growth_Rep1): 169% | activity at 2 µg/mL ([2]; 3D7, P. falciparum, 120 h, parasite screen 2 μg/mL, % growth, replicate 2, read-out: Pf_120h_%Growth_Rep2): 96.5% | percent parasite growth at 2 µg/mL ([3]; Toxoplasma gondii, 72 h, T. gondii, 72 h, parasite screen 2 μg/mL, % growth, replicate 1; read-out: Tg_72h_%Growth_Rep1): 82% | percent parasite growth at 2 µg/mL ([3]; Toxoplasma gondii, 72 h, T. gondii, 72 h, parasite screen 2 μg/mL, % growth, replicate 2; read-out: Tg_72h_%Growth_Rep2): 103%

CCOC(=O)c1c(C)cc(O)cc1O [Ethyl orsellinate]
Pf_72h_%Growth_Rep1 [1, 16]: 90.89% | Pf_72h_%Growth_Rep2 [1, 17]: 117.50% | Pf_120h_%Growth_Rep1 [2, 18]: 96.78% | Pf_120h_%Growth_Rep2 [2, 19]: 106.42% | Tg_72h_%Growth_Rep1 [3, 16]: 128.38% | Tg_72h_%Growth_Rep2 [3, 17]: 103.54%

C=C[C@]1(C)C[C@@H](O)[C@]2(C)[C@H](C)CC[C@]3(CCC(=O)[C@H]32)[C@@H](C)[C@@H]1O [BIA-M1333]
Pf_72h_%Growth_Rep1 [1, 4]: 79.79% | Pf_72h_%Growth_Rep2 [1, 5]: 96.77% | Pf_120h_%Growth_Rep1 [2, 6]: 84.29% | Pf_120h_%Growth_Rep2 [2, 7]: 105.61% | Tg_72h_%Growth_Rep1 [3, 8]: 107.76% | Tg_72h_%Growth_Rep2 [3, 9]: 90.41%

COc1cc2c(c3oc4cccc(O)c4c(=O)c13)[C@@H]1C=CO[C@@H]1O2 [Sterigmatocystin]
Pf_72h_%Growth_Rep1 [1, 26]: 4.81% | Pf_72h_%Growth_Rep2 [1, 27]: 2.16% | Pf_120h_%Growth_Rep1 [2, 28]: 5.33% | Pf_120h_%Growth_Rep2 [2, 29]: 4.61% | Tg_72h_%Growth_Rep1 [3, 30]: 117.93% | Tg_72h_%Growth_Rep2 [3, 31]: 89.47%

CO[C@H]1[C@@H](O)[C@@H](C)O[C@H](O[C@H]2[C@H](Oc3cccc4c(O)c5c(=O)oc6ccc(C)c7c(=O)oc(c34)c5c67)O[C@H](C)[C@H](O)[C@@H]2O)[C@@H]1O [Chartreusin]
activity at 2 µg/mL ([1]; 3D7, 72 h, P. falciparum, 72 h, screen at 2 μg/mL, replicate 1, read-out: Pf_72h_%Growth_Rep1): 101% | activity at 2 µg/mL ([1]; 3D7, 72 h, P. falciparum, 72 h, screen at 2 μg/mL, replicate 2, read-out: Pf_72h_%Growth_Rep2): 88.7% | activity at 2 µg/mL ([2]; 3D7, 120 h, P. falciparum, 120 h, screen at 2 μg/mL, replicate 1, read-out: Pf_120h_%Growth_Rep1): 144% | activity at 2 µg/mL ([2]; 3D7, 120 h, P. falciparum, 120 h, screen at 2 μg/mL, replicate 2, read-out: Pf_120h_%Growth_Rep2): 96.8% | percent parasite growth at 2 µg/mL [3, 14]: 85.7% | percent parasite growth at 2 µg/mL [3, 15]: 97.4%

COC[C@H]1OC(=O)c2coc3c2[C@@]1(C)C1=C(C3=O)[C@@H]2CCC(=O)[C@@]2(C)C[C@H]1OC(C)=O [Wortmannin]
activity at 2 µg/mL [1, 10]: 88.8% | activity at 2 µg/mL [1, 11]: 119% | activity at 2 µg/mL [2, 12]: 109% | activity at 2 µg/mL [2, 13]: 96.5% | percent parasite growth at 2 µg/mL ([3]; Toxoplasma gondii; T. gondii, 72 h, screen at 2 μg/mL, replicate 1; read-out: Tg_72h_%Growth_Rep1): 97.3% | percent parasite growth at 2 µg/mL ([3]; Toxoplasma gondii; T. gondii, 72 h, screen at 2 μg/mL, replicate 2; read-out: Tg_72h_%Growth_Rep2): 76.4%

CCC1NC(=O)C(NC(=O)c2ncccc2O)C(C)OC(=O)C(c2ccccc2)NC(=O)C2CC(=O)CCN2C(=O)C(Cc2ccc(N(C)C)cc2)N(C)C(=O)C2CCCN2C1=O (stereo not drawn) [Virginiamycin B] ({Picolinoyl(3-OH)}-T[Abu]P[ξNMePhe(4-NMe2)][ξPip(4-oxo)][Phg]; ester 1-C; configuration not given here)
Pf_72h_%Growth_Rep1 [1, 20]: 73.90% | Pf_72h_%Growth_Rep2 [1, 21]: 82.34% | Pf_120h_%Growth_Rep1 [2, 22]: 152.31% | Pf_120h_%Growth_Rep2 [2, 23]: 75.63% | Tg_72h_%Growth_Rep1 [3, 24]: 93.06% | Tg_72h_%Growth_Rep2 [3, 25]: 114.46%
